Experimental data from patent publication US20090137572A1, “2-substituted-4-heteroaryl-pyrimidines useful for the treatment of proliferative disorders” (priority 2004, published 2009).

How the values were obtained:
Assay type in all cases: biochemical
CDK9/cyclin T1 = CDK9/cyclin T1 (Homo sapiens, UniProt P50750); assay: CDK 9 assay (CTD peptide substrate); details: read-out: Kinase Inhibition pIC50 CDK9-cyclin T1 (converted)
Experimental: (§1) Kinase assays. The compounds of the invention above were investigated for their ability to inhibit the enzymatic activity of various protein kinases (Table 2). This was achieved by measurement of incorporation of radioactive phosphate from ATP into appropriate polypeptide substrates. Recombinant protein kinases and kinase complexes were produced or obtained commercially. Assays were performed using 96-well plates and appropriate assay buffers (typically 25 mM β-glycerophosphate, 20 mM MOPS, 5 mM EGTA, 1 mM DTT, 1 mM […], pH 7.4), into which were added 2-4 μg of active enzyme with appropriate substrates. The reactions were initiated by addition of Mg/ATP mix (15 mM MgCl2+100 μM ATP with 30-50 kBq per well of [γ-^32P]-ATP) and mixtures incubated as required at 30° C. Reactions were stopped on ice, followed by filtration through p81 filterplates or GF/C filterplates (Whatman Polyfiltronics, Kent, UK). After washing 3 times with 75 mM aq orthophosphoric acid, plates were dried, scintillant added and incorporated radioactivity measured in a scintillation counter (TopCount, Packard Instruments, Pangbourne, Berks, UK). Compounds for kinase assay were made up as 10 mM stocks in DMSO and diluted into 10% DMSO in assay buffer.
CDK 7 and 9 assays. CTD peptide substrate (biotinyl-Abx-(Tyr-Ser-Pro-Thr-Ser-Pro-Ser)4-NH2; 1-2 mg/mL) and recombinant human CDK7/cyclin H, CDK9/cyclin T1, or CDK9/cyclin K (0.5-2 μg) were incubated for 45 min at 30° C. in the presence of varying amounts of test compound in 20 mM MOPS pH 7.2, 25 mM β-glycerophosphate, 5 mM EGTA, 1 mM DTT, 1 mM sodium vanadate, 15 mM MgCl2, and 100 μM ATP (containing a trace amount of ^32PγATP) in a total volume of 25 μL in a 96-well microtiter plate. The reaction was stopped by placing the plate on ice for 2 min. Avidin (50 μg) was added to each well, and the plate was incubated at room temp for 30 min. The samples were transferred to a 96-well P81 filter plate, and washed (4×200 μL per well) with 75 mM phosphoric acid. Microscint 40 scintillation liquid (50 μL) was added to each well, and the amount of ^32P incorporation for each sample was measured using a Packard Topcount microplate scintillation counter.

Aurora A kinase = biological target: T1, Aurora A kinase (Homo sapiens, UniProt O14965); assay: Aurora-A (human) kinase assay (Kemptide substrate); details: pIC50 is -log(IC50, M); 15 μM ATP; read-out: Kinase Inhibition pIC50 Aurora A kinase (converted)
T1 construct: purchased
T1 sequence (O14965 1-403): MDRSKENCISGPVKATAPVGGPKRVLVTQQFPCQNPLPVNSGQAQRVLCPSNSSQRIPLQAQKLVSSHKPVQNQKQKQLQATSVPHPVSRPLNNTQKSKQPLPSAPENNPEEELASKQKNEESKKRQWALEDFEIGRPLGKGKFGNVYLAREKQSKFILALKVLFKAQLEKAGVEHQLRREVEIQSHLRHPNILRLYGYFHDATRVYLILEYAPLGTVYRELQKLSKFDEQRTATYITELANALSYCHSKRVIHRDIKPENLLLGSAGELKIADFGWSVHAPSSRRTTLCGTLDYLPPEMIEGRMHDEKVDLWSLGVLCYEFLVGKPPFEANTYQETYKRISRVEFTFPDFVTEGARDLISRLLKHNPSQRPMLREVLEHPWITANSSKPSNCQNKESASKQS
Experimental: Aurora-A (human) kinase assay. This was achieved by measurement of incorporation of radioactive phosphate from ATP into Kemptide substrate (LRRASLG), upon phosphorylation by commercially obtained aurora-A kinase. Assays were performed using 96-well plates and appropriate assay buffers (8 mM MOPS, 0.2 mM EDTA, pH 7.0), into which were added 5-10 ng of active enzyme with 200 μM substrate (Kemptide). The reactions were initiated by addition of Mg/ATP mix (10 mM MgAcetate+15 μM ATP with 30-50 kBq per well of [γ-^33P]-ATP) and mixtures incubated for 40 min at room temperature. Reactions were stopped by addition of 3% phosphoric acid, followed by filtration through p81 filterplates (Whatman Polyfiltronics, Kent, UK). After washing 5 times with 75 mM aq orthophosphoric acid and once in methanol, plates were dried, scintillant added and incorporated radioactivity measured in a scintillation counter (TopCount, Packard Instruments, Pangbourne, Berks, UK). Compounds for kinase assay were made up as 10 mM stocks in DMSO and diluted into 10% DMSO in assay buffer.

CDK2-cycline E = CDK2-cycline E (Homo sapiens, UniProt P24941); assay: Kinase assay (radioactive phosphate incorporation), CDK2-cyclin E; details: read-out: Kinase Inhibition pIC50 CDK2-cycline E (converted)
Experimental: as §1

Sequence of CDK9/cyclin T1 (P50750 whole entry): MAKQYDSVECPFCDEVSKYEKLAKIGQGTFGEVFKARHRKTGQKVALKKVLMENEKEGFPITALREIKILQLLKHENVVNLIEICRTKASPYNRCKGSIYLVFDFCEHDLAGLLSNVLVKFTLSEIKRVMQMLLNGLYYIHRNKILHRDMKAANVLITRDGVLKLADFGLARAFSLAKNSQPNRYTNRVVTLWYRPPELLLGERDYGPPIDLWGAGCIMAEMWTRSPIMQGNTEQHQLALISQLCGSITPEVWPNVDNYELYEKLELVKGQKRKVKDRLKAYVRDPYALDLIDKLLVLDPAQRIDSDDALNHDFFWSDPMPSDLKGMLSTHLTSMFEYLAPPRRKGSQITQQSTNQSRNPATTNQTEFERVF
Sequence of CDK9/cyclin T1 (O60563 whole entry partner): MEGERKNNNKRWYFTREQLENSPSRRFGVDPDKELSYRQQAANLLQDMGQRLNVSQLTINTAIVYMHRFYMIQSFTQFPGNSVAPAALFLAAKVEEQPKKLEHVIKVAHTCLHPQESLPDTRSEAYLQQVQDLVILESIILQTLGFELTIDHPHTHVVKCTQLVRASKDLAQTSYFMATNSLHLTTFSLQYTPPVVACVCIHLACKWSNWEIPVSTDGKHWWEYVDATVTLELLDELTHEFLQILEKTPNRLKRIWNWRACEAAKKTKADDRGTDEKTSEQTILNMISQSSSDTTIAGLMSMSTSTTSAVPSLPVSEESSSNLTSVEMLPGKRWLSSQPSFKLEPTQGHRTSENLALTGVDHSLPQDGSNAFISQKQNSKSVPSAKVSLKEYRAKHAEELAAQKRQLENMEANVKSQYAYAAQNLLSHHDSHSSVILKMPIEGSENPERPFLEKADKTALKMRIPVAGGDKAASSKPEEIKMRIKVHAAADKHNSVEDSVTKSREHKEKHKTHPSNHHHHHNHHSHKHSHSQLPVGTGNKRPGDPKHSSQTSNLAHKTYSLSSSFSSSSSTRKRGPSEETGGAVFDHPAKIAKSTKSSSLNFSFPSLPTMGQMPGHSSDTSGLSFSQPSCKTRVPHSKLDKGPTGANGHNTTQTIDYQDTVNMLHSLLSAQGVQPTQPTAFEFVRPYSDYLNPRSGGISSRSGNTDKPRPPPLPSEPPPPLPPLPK

| SMILES | IC50 (CDK9/cyclin T1) [nM] | IC50 (Aurora A kinase) [nM] | IC50 (CDK2-cycline E) [nM] |
| --- | --- | --- | --- |
| CCNc1nc(C)c(-c2ccnc(Nc3cccc(Br)c3)n2)s1 [Compound 50, (3-Bromo-phenyl)-[4-(2-ethylamino-4-methyl-thiazol-5-yl)-pyrimidin-2-yl]-amine] | 200 | 20 | – |
| CCNc1nc(C)c(-c2ccnc(Nc3ccc4c(c3)OCCO4)n2)s1 [Compound 181, (2,3-Dihydro-benzo[1,4]dioxin-6-yl)-[4-(2-ethylamino-4-methyl-thiazol-5-yl)-pyrimidin-2-yl]-amine] | – | 200 | 501 |
| CNc1nc(C)c(-c2ccnc(Nc3ccc(OC)c(C)c3)n2)s1 [Compound 184, (4-Methoxy-3-methyl-phenyl)-[4-(4-methyl-2-methylamino-thiazol-5-yl)-pyrimidin-2-yl]-amine] | – | 63.1 | 126 |
| COc1ccc(Nc2nccc(-c3sc(N)nc3C)n2)cc1C [Compound 185, [4-(2-Amino-4-methyl-thiazol-5-yl)-pyrimidin-2-yl]-(4-methoxy-3-methyl-phenyl)-amine] | – | 39.8 | 251 |
| CCNc1nc(C)c(-c2ccnc(Nc3ccc(OC)c(C)c3)n2)s1 [Compound 187, [4-(2-Ethylamino-4-methyl-thiazol-5-yl)-pyrimidin-2-yl]-(4-methoxy-3-methyl-phenyl)-amine] | – | 100 | 794 |
| Cc1nc(CO)sc1-c1ccnc(Nc2ccc(N3CCOCC3)cc2)n1 [Compound 188, {4-Methyl-5-[2-(4-morpholin-4-yl-phenylamino)-pyrimidin-4-yl]-thiazol-2-yl}-methanol] | 3980 | 79.4 | 1580 |
| CCOC(=O)N1CCN(c2ccc(Nc3nccc(-c4sc(C)nc4C)n3)cc2)CC1 [Compound 189, 4-{4-[4-(2,4-Dimethyl-thiazol-5-yl)-pyrimidin-2-ylamino]-phenyl}-piperazine-1-carboxylic acid ethyl ester] | 2000 | 100 | 2000 |
| Cc1nc(C)c(-c2ccnc(Nc3ccc(N4CCCCC4)cc3)n2)s1 [Compound 193, [4-(2,4-Dimethyl-thiazol-5-yl)-pyrimidin-2-yl]-(4-piperidin-1-yl-phenyl)-amine] | 3980 | 200 | – |
| CCNc1nc(C)c(-c2ccnc(Nc3ccc(N4CCCCC4)cc3)n2)s1 [Compound 194, [4-(2-Ethylamino-4-methyl-thiazol-5-yl)-pyrimidin-2-yl]-(4-piperidin-1-yl-phenyl)-amine] | – | 79.4 | 794 |
| CCNc1nc(C)c(-c2ccnc(Nc3ccc(N4CCN(C)CC4)cc3)n2)s1 [Compound 196, [4-(2-Ethylamino-4-methyl-thiazol-5-yl)-pyrimidin-2-yl]-[4-(4-methyl-piperazin-1-yl)-phenyl]-amine] | – | 200 | 631 |
| COc1cc(Nc2nccc(-c3sc(CO)nc3C)n2)ccc1N1CCOCC1 [Compound 200, {5-[2-(3-Methoxy-4-morpholin-4-yl-phenylamino)-pyrimidin-4-yl]-4-methyl-thiazol-2-yl}-methanol] | – | 39.8 | 2000 |
| CCNc1nc(C)c(-c2ccnc(Nc3ccc(N4CCOCC4)c(C(N)=O)c3)n2)s1 [Compound 212, 5-[4-(2-Ethylamino-4-methyl-thiazol-5-yl)-pyrimidin-2-ylamino]-2-morpholin-4-yl-benzamide] | 1260 | 63.1 | 1000 |
| Cc1nc(C)c(-c2ccnc(Nc3ccc(N4CCN(C(=O)C5CC5)CC4)cc3)n2)s1 [Compound 213, Cyclopropyl-(4-{4-[4-(2,4-dimethyl-thiazol-5-yl)-pyrimidin-2-ylamino]-phenyl}-piperazin-1-yl)-methanone] | 2510 | 39.8 | 1580 |
| COc1ccc(Nc2nccc(-c3sc(C)nc3C)n2)cc1CN1CCOCC1 [Compound 215, [4-(2,4-Dimethyl-thiazol-5-yl)-pyrimidin-2-yl]-(4-methoxy-3-morpholin-4-ylmethyl-phenyl)-amine] | – | 200 | 1580 |
